According to US20190298664A1, “METHOD AND KIT FOR MYOCARDIAL REPERFUSION, AND METHOD FOR ATTENUATING OR REDUCING MYOCARDIAL REPERFUSION INJURY” (Academia Sinica, priority 2018, published 2019):

Assays:
Type in all cases: in vivo, mouse
Details in all cases: PVS 5 mg/kg intramyocardial at beginning of ischemia; ischemia 1 h, reperfusion 4 h
[1] = system: myocardial protein tyrosine phosphorylation; test: Immunoblotting of heart extracts of I/R mice (anti-pTyr, p-Paxillin, p-p130cas, p-ErbB-2)
Description: (§1) We anesthetized the mouse with 5% isoflurane mixed with room air until loss of sensation of pain and then maintained the mouse in anesthesia status with 2% isoflurane mixed with room air through the whole procedure. The mouse's body temperature was maintained at 37° C. by a heating pad. After the mouse was intubated, we provided artificial ventilation to the mouse with a small animal ventilator. Then the chest cavity was opened at the second intercostal space and homemade chest retractors were utilized to widen the incision. We pulled the pericardium apart carefully and exposed the left anterior descending artery (LAD). A 7-0 silk was put underneath the LAD at the position of the tip of the left auricle, a 6 mm length of PE-10 tube was put on the surface of the LAD, and then a double knot was made to occlude the blood flow of LAD. The success of ligation was confirmed by paling the anterior wall of the LV. For the reperfusion group, the LAD knot would be untied for the purpose of reperfusion after 1 hour of ischemia. For the sham operation group, all procedures were the same except for the knot that occluded the LAD flow. After the successful procedure, we left the silk in situ, closed the chest cavity and weaned the animal from the ventilator.
Hearts from mice received different treatment were gently homogenized in ice-cold RIPA buffer [250 mM Tris-HCl pH 7.4, 750 mM NaCl, detergent mix (5% NP-40, 2.5% Na-deoxycholate and 0.5% SDS), and 1× protease inhibitor cocktail (EDTA free)] containing phosphatase inhibitors (2 mM Na3VO4, 10 mM NaF, and 10 mM Na2P2O7). The homogenates were centrifuged at 16,100×g at 4° C. for 10 minutes to remove the debris. Protein concentrations were determined by Bradford protein assay. Equal amounts of protein extract from those mice were separated by SDS-PAGE on an 8% or 10% polyacrylamide gel and then transferred to PVDF membrane. Membranes were incubated with indicated primary antibody at 4° C. overnight followed by incubated with secondary antibodies for 1 hour at room temperature. The protein abundance was detected by the signal intensity of each specific band.

I/R mice [2] = test: Myocardial infarct size (Evans blue/TTC staining) in I/R mice
Description: as §1
At the end of experiment, the animal was sacrificed. We opened the chest cavity and exposed the heart and aorta. The heart was perfused with 0.9% saline from the apex until the coronary vessels and myocardium turning into pale color. After saline perfusion, the LAD knot was tied again. 1 mL of 1% Evans blue dye was delivered into the heart through the aortic root by retrograde injection. The dye uniformly perfused the whole heart except in the area of the heart previously perfused by the occluded coronary artery (area at risk, AAR). Then the heart was quickly removed, washed in ice-cold 0.9% saline followed by frozen at −20° C. for 20 minutes, then cut into slices of 1 mm with heart matrix. […] The areas stained with Evans blue negative but TTC-positive (AAR), and TTC-negative area (infarct area) were all measured digitally by ImageJ software. […]

I/R mice [3] = test: Serum troponin I measurement in I/R mice
Description: as §1
Before the mouse was sacrificed, blood was drawn from the facial vein. The blood was put in the room temperature for 30 minutes and then centrifuged at 4° C. for 15 minutes at 5000 rpm. After centrifuging, the serum is collected for troponin I measurement with troponin I ELISA kit (KT-469, Kamiya Biomedical Company) according to the manufacture's protocol.

SMILES: C=CS(=O)(=O)c1ccccc1 [PVS, phenyl vinyl sulfone]
- I/R-caused tyrosine dephosphorylation of myocardial proteins [1]: rebounded
- Area of heart infarction (I/R mice [2]): reduced
- Release of troponin I into the blood (I/R mice [3]): decreased
